Laboratory results reported in article PMC11557573, “Aspergillus flavipes L-methionine γ-lyase-β-cyclodextrin conjugates with improved stability, catalytic efficiency and anticancer activity” (Scientific Reports, 2024).

system: T1, A. flavipes L-methionine γ-lyase (MGL), free MGL; assay: released thiol/ammonia assay (DTNB), Lineweaver-Burk; format: biochemical, Aspergillus flavipes; conditions: free enzyme; standard assay Tris-HCl pH 7.8, 10 μM PLP, 37 °C
T1 construct: native intracellular enzyme purified from A. flavipes mycelium (acetone, Sephadex G100, DEAE-Sepharose); 48 kDa subunit; PLP enzyme; free (not cyclodextrin-conjugated)
From the text: released thiol/ammonia assay (DTNB), Lineweaver-Burk on A. flavipes L-methionine γ-lyase (MGL), free MGL

Row | Structure (SMILES) | Km [mM]
1 | CSCC[C@H](N)C(=O)O [L-methionine] | 7.2
2 | NC(CCS)C(=O)O (racemic) [DL-homocysteine] | 12.2
3 | N[C@@H](CS)C(=O)O [L-cysteine] | 9.5
